Some test systems named below: NCI-H460 lung; SK-OV-3 ovarian; IGROV1 ovarian; 786-0 renal; KM12 colon; NCI-H522 lung; HCT-15 colon; SF-268 CNS; UACC-257 melanoma; SN12C renal.
Assay in all cases: NCI tumour cell line growth inhibition, 48 h

Values joined by “and” are separate entries in the source; they are usually repeats but may differ in a detail not shown here. Equal entries are not always repeated.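 1) Cells in 96-well plates. 2) Compound, 48 h, 5 concentrations. 3) Linear interpolation between surrounding doses. 4) Unreached endpoint = highest concentration. Here, GI50 denotes the concentration required for 50% inhibition of growth. TGI: total growth inhibition.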

In the case of `O=[N+]([O-])c1cc(I)cc(/C=N/NS(=O)(=O)c2ccc(F)cc2)c1O`, the TGI was found to be 44 µM in the assay on NCI-H460 lung; 70.2 µM in the assay on SK-OV-3 ovarian; 95.7 µM with IGROV1 ovarian; 82.9 µM with 786-0 renal; 61.9 µM in the assay on KM12 colon; 40.9 µM with NCI-H522 lung. For the same molecule, the TGI with HCT-15 colon is 64.7 µM; in the assay with SF-268 CNS, 61.5 µM; with UACC-257 melanoma, 62.3 µM; in the assay with SN12C renal it was 54.1 µM.
Take `COc1ccc(-c2c(NC(=O)Nc3ccc(Cl)c(C(F)(F)F)c3)cnn2-c2ccc(S(N)(=O)=O)cc2)cc1`: the GI50 in the assay with NCI-H460 lung is 3.5 µM; with SK-OV-3 ovarian it was 3.69 µM; with IGROV1 ovarian it was 3.66 µM; in the assay with 786-0 renal, 1.68 µM; with KM12 colon, 3.04 µM; with NCI-H522 lung, 2.98 µM. For the same molecule, the GI50 was 3.63 µM in the assay with HCT-15 colon, 3.34 µM in the assay with SF-268 CNS, 3.29 µM in the assay with UACC-257 melanoma and 3.58 µM in the assay on SN12C renal. Further, the TGI in the assay with NCI-H460 lung amounted to 10.4 µM; with SK-OV-3 ovarian, 14 µM; in the assay with IGROV1 ovarian it was 21.3 µM; in the assay with 786-0 renal it was 3.42 µM; in the assay on KM12 colon it was 11.6 µM; with NCI-H522 lung, 12.3 µM. Besides, the TGI was found to be 14.4 µM in the assay with HCT-15 colon, 14.7 µM in the assay with SF-268 CNS, 12 µM in the assay on UACC-257 melanoma and 13.1 µM in the assay on SN12C renal.
Consider `O=C1/C(=C/c2ccc(Cl)cc2)N=C(c2ccccc2)N1c1cc(C(F)(F)F)ccc1Cl`, for which the GI50 in the assay on NCI-H460 lung is 19.4 µM; in the assay on SK-OV-3 ovarian, 35.7 µM; in the assay with IGROV1 ovarian, 18.5 µM; with 786-0 renal, 14.4 µM; with KM12 colon, 21.9 µM; in the assay on NCI-H522 lung, 20.1 µM. The GI50 with HCT-15 colon is 18.9 µM; in the assay on SF-268 CNS it was 28.8 µM; in the assay on UACC-257 melanoma it was 26.9 µM; with SN12C renal it was 30.5 µM. In addition, the TGI is 61.7 µM in the assay on NCI-H460 lung; greater than 100 µM in the assay on SK-OV-3 ovarian; 85.7 µM with IGROV1 ovarian; 50.6 µM in the assay with 786-0 renal; 84 µM with KM12 colon; 76 µM in the assay on NCI-H522 lung. The TGI in the assay with HCT-15 colon was 86.6 µM; with SF-268 CNS, greater than 100 µM; in the assay with UACC-257 melanoma, 99.6 µM; in the assay on SN12C renal, greater than 100 µM.
Regarding `Oc1cccc2cccnc12`, the GI50 with NCI-H460 lung is 1.6 µM and 3.32 µM and 3.85 µM; in the assay on SK-OV-3 ovarian, 42.2 µM and 46.1 µM and > 100 µM; in the assay with KM12 colon it was 3.04 µM and 14 µM and 5.1 µM; in the assay on NCI-H522 lung, 0.22 µM and 0.487 µM and 1.92 µM; in the assay with HCT-15 colon, 2.04 µM and 5.51 µM and 2.52 µM; in the assay on SF-268 CNS, 4.04 µM and 32.7 µM and 3.29 µM. Also, in the assay with SN12C renal, the GI50 is 5.56 µM and 29.8 µM and 4.23 µM. Also, the TGI is 23.4 µM and > 100 µM and 21.9 µM in the assay on NCI-H460 lung; greater than 100 µM with SK-OV-3 ovarian; 28.9 µM and 24.4 µM and > 100 µM with IGROV1 ovarian; greater than 100 µM in the assay with 786-0 renal; greater than 100 µM in the assay with KM12 colon; greater than 100 µM in the assay on HCT-15 colon. The TGI with SF-268 CNS was greater than 100 µM; in the assay with UACC-257 melanoma, 27.3 µM and > 100 µM and > 27.8 µM; in the assay on SN12C renal, greater than 100 µM.
With `FC(F)(F)c1cccc(Oc2ccc(Nc3ncnc4ccc(OCCCN5CCOCC5)cc34)cc2Cl)c1`, the GI50 in the assay on NCI-H460 lung was 1.9 µM; in the assay on SK-OV-3 ovarian it was 1.38 µM; with IGROV1 ovarian, 1.01 µM; in the assay on 786-0 renal it was 1.51 µM; in the assay on KM12 colon, 2.29 µM; with NCI-H522 lung, 0.833 µM. The GI50 in the assay on HCT-15 colon is 1.48 µM; in the assay with SF-268 CNS, 2.06 µM; with UACC-257 melanoma it was 2.03 µM; with SN12C renal it was 2.2 µM. The TGI in the assay on NCI-H460 lung turned out to be 3.56 µM; with SK-OV-3 ovarian, 15.5 µM; with IGROV1 ovarian it was 3.16 µM; in the assay with 786-0 renal, 3.11 µM; in the assay with KM12 colon, 5.59 µM; in the assay with NCI-H522 lung it was 3.3 µM. Moreover, the TGI came to 3.16 µM with HCT-15 colon, 6.82 µM in the assay on SF-268 CNS, 4.52 µM with UACC-257 melanoma and 11.8 µM with SN12C renal.
In the case of `Cc1ccc(NC(=O)CCc2nnc3s/c(=C\C=C\c4ccccc4)c(=O)n23)cc1`, the TGI with NCI-H460 lung, with SK-OV-3 ovarian, in the assay on IGROV1 ovarian, with 786-0 renal, in the assay with KM12 colon and in the assay on NCI-H522 lung was greater than 100 µM throughout. The TGI in the assay on HCT-15 colon, with SF-268 CNS, with UACC-257 melanoma and with SN12C renal was greater than 100 µM in each case.
Consider `Oc1c(CN2CCCCC2)ccc2cccnc12`, for which the GI50 was 2.31 µM with NCI-H460 lung; 4.33 µM in the assay with SK-OV-3 ovarian; 2.52 µM in the assay on IGROV1 ovarian; 2.72 µM in the assay on 786-0 renal; 3.91 µM in the assay on KM12 colon; 3.6 µM in the assay with NCI-H522 lung. Besides, the GI50 was 0.728 µM in the assay on HCT-15 colon, 6.07 µM in the assay with SF-268 CNS, 2.91 µM in the assay on UACC-257 melanoma and 4.62 µM in the assay on SN12C renal. Also, the TGI in the assay with NCI-H460 lung was 7.62 µM; with SK-OV-3 ovarian, 25 µM; with IGROV1 ovarian it was 7.8 µM; in the assay with 786-0 renal, greater than 100 µM; in the assay on KM12 colon, 19.6 µM; in the assay on NCI-H522 lung, 10.9 µM. For the same molecule, the TGI in the assay with HCT-15 colon is 82.9 µM; in the assay with SF-268 CNS, greater than 100 µM; with UACC-257 melanoma, 83.3 µM; with SN12C renal, greater than 100 µM.
With `Cn1cc(-c2ncnc3ccc(-c4cnc(Cl)c(NS(C)(=O)=O)c4)cc23)c2ccccc21`, the GI50 is 0.365 µM in the assay with NCI-H460 lung; 0.263 µM with SK-OV-3 ovarian; 0.0964 µM in the assay on IGROV1 ovarian; 1.44 µM with 786-0 renal; 1.46 µM in the assay on KM12 colon; 1.42 µM with NCI-H522 lung. Also, the GI50 was 0.447 µM with HCT-15 colon, 1.09 µM in the assay with SF-268 CNS, 0.959 µM with UACC-257 melanoma and 0.856 µM in the assay on SN12C renal. Further, the TGI was greater than 100 µM in the assay with NCI-H460 lung; 2.32 µM in the assay with SK-OV-3 ovarian; 0.852 µM with IGROV1 ovarian; greater than 100 µM in the assay with 786-0 renal; 19.2 µM in the assay on KM12 colon; greater than 100 µM in the assay on NCI-H522 lung. Also, the TGI in the assay with HCT-15 colon was greater than 71.1 µM; with SF-268 CNS, greater than 100 µM; with UACC-257 melanoma it was 7.05 µM; in the assay on SN12C renal, greater than 100 µM.
Take `Cn1c(=O)nc2n(-c3ccc(F)c(F)c3)c3ccccc3nc-2c1=O`: the TGI in the assay with NCI-H460 lung is 35.5 µM; in the assay with SK-OV-3 ovarian, greater than 100 µM; with IGROV1 ovarian, 41.4 µM; in the assay on 786-0 renal, greater than 100 µM; with KM12 colon, greater than 100 µM; in the assay on NCI-H522 lung it was 25.8 µM. Moreover, the TGI in the assay on HCT-15 colon is 20.4 µM; in the assay with SF-268 CNS, greater than 100 µM; in the assay on UACC-257 melanoma it was 20.1 µM; with SN12C renal it was 53.8 µM.
With `O=C1NN(C(=O)c2ccccc2)C(c2ccc(Cl)c(Cl)c2)=C/C1=C\c1ccccc1[N+](=O)[O-]`, the GI50 was 1.78 µM with NCI-H460 lung; 4 µM in the assay with SK-OV-3 ovarian; 1.59 µM in the assay on IGROV1 ovarian; 2.2 µM in the assay with 786-0 renal; 2.34 µM in the assay on KM12 colon; 1.24 µM in the assay with NCI-H522 lung. Further, the GI50 with HCT-15 colon is 0.923 µM; with SF-268 CNS, 3.97 µM; with UACC-257 melanoma, 5.23 µM; in the assay with SN12C renal, 2.4 µM. In addition, the TGI with NCI-H460 lung is 5.2 µM; in the assay with SK-OV-3 ovarian, greater than 6.75 µM; in the assay with IGROV1 ovarian it was greater than 6.75 µM; with 786-0 renal, greater than 6.75 µM; with KM12 colon, greater than 6.75 µM; with NCI-H522 lung, 3.77 µM. Besides, the TGI was 2.99 µM with HCT-15 colon, greater than 6.75 µM in the assay with SF-268 CNS, greater than 6.75 µM in the assay with UACC-257 melanoma and greater than 6.75 µM in the assay on SN12C renal.

The values above are taken from PubChem BioAssay (NCI).
